Laboratory results: the CheMixHub drug solubility set

Test: xn = mol fraction of the nth substance listed, in the solute-free solvent

Cc1ncc(CO)c(CO)c1O.Cl + O + CC(C)O
solubility (g/100 g solution)
Settings	278.15 K	283.15 K	288.15 K	293.15 K	298.15 K	303.15 K	308.15 K	313.15 K
x2 = 0.3	0.401	0.512	0.632	0.825	1.01	1.26	1.54	1.89
x2 = 0.4	0.684	0.867	1.11	1.47	1.84	2.34	2.86	3.53
x2 = 0.5	1.35	1.72	2.2	2.8	3.42	4.25	5.16	6.25
x2 = 0.6	2.56	3.18	3.92	4.83	5.89	7.02	8.34	9.79
x2 = 0.7	3.45	4.36	5.42	6.76	8.29	10.1	12	14.3
x2 = 0.8	4.83	6.11	7.62	9.29	11.3	13.4	15.8	18.8
x2 = 0.9	7.31	8.78	10.7	12.7	14.4	16.6	19.7	23.9

Cc1ncc(CO)c(CO)c1O.Cl + O + CC#N
solubility (g/100 g solution)
Settings	278.15 K	283.15 K	288.15 K	293.15 K	298.15 K	303.15 K	308.15 K	313.15 K
x2 = 0.3	0.681	0.776	0.889	1.02	1.16	1.3	1.47	1.67
x2 = 0.4	2.06	2.27	2.65	2.92	3.32	3.7	4.04	4.51
x2 = 0.5	3.81	4.09	4.73	5.11	5.79	6.6	7.19	8.12
x2 = 0.6	5.82	6.51	7.44	8.31	9.5	10.3	11.2	12.6
x2 = 0.7	8.18	9.25	10.4	11.8	13.4	14.2	15.5	17.9
x2 = 0.8	10.6	11.9	13.4	15.2	16.6	18.3	20	23.4
x2 = 0.9	11.5	13.3	14.6	17	18.6	20.7	22.7	26.3

Cc1nc2n(c(=O)c1CCN1CCC(c3noc4cc(F)ccc34)CC1)CCCC2 + CC(C)O + O
solubility (g/100 g solution)
Settings	278.15 K	283.15 K	288.15 K	293.15 K	298.15 K	303.15 K	308.15 K	313.15 K
x2 = 0.1139	0.369	0.473	0.605	0.788	0.98	1.22	1.52	1.88
x2 = 0.1664	1.41	1.66	1.99	2.47	2.94	3.63	4.31	5.25
x2 = 0.2308	2.72	3.2	3.94	4.7	5.66	6.83	8.2	9.98
x2 = 0.3101	4.21	4.9	5.85	6.92	8.29	9.97	11.9	14.2
x2 = 0.4116	4.95	5.81	6.87	8.09	9.69	11.5	13.5	16.3
x2 = 0.5454	4.55	5.34	6.38	7.46	8.78	10.4	12.3	14.6
x2 = 0.7297	2.53	3.02	3.63	4.31	5.08	6.06	7.28	8.7

NC(=O)NC1NC(=O)NC1=O (stereo not given) + O + CCO
solubility (g/100 g solution)
Settings	288.15 K	293.15 K	298.15 K	303.15 K	308.15 K	313.15 K	318.15 K	323.15 K	328.15 K	333.15 K
x2 = 0.264	0.0433	0.0548	0.0707	0.0891	0.116	0.137	0.163	0.189	0.225	0.262
x2 = 0.447	0.0924	0.108	0.137	0.174	0.216	0.263	0.298	0.355	0.417	0.46
x2 = 0.683	0.159	0.202	0.268	0.332	0.409	0.535	0.646	0.76	0.923	1.09
x2 = 0.829	0.239	0.306	0.394	0.487	0.63	0.785	1.02	1.21	1.48	1.74
x2 = 0.928	0.264	0.353	0.5	0.619	0.787	0.968	1.3	1.58	1.97	2.33

C#CC1(O)C=CC2C3CCC4=CC(=O)CCC4C3CCC21CC (stereo not given) + CO + O
solubility (g/100 g solution)
Settings	x2 = 0.05881	x2 = 0.1233	x2 = 0.1942	x2 = 0.2727	x2 = 0.3599	x2 = 0.4576	x2 = 0.5675	x2 = 0.6923	x2 = 0.835
283.15 K	0.314	0.312	0.374	0.434	0.812	1.22	1.5	3.21	3.44
293.15 K	0.435	0.437	0.512	0.594	1.2	1.81	2.45	4.24	5.12
298.15 K	0.503	0.51	0.598	0.692	1.49	2.18	3.09	4.83	6.09
303.15 K	0.578	0.592	0.696	0.804	1.8	2.59	3.85	5.45	7.24
308.15 K	0.66	0.687	0.811	0.932	2.16	3.06	4.78	6.1	8.54
313.15 K	0.746	0.791	0.943	1.08	2.55	3.6	5.87	6.79	9.97
318.15 K	0.838	0.905	1.09	1.25	2.97	4.2	7.12	7.51	11.7
323.15 K	0.934	1.03	1.27	1.44	3.41	4.87	8.61	8.26	13.5
